In this assay the target is T1, human dopamine transporter (hDAT) (Homo sapiens, UniProt Q01959, I248Y).
T1 construct: gene SLC6A3; hDAT-I248Y expressed in HEK293S cells
Format: cell-based.

T1 sequence (Q01959 whole entry I248Y): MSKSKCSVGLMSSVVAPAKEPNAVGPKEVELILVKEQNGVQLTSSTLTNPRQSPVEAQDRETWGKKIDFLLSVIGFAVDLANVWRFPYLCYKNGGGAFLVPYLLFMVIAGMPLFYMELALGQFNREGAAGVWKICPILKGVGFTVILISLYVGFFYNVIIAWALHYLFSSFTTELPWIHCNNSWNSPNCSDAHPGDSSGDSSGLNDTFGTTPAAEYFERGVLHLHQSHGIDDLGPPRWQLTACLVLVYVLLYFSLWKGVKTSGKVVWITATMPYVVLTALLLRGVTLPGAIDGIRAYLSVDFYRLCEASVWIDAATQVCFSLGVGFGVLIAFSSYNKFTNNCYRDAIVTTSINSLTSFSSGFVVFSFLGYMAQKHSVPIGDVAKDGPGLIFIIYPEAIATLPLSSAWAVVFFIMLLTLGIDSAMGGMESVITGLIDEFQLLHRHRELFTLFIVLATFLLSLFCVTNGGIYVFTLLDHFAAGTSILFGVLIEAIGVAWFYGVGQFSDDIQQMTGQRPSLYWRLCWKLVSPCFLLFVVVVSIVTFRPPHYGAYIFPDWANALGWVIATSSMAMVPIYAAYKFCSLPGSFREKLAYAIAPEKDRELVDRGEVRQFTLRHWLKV

`NCCc1ccc(O)c(O)c1` [dopamine]: the “[3H]dopamine uptake in cells” value was “the I248Y mutant was also able to transport dopamine (S2 Fig)”.

Source of the values: article PMC6028122, “Thermostabilization and purification of the human dopamine transporter (hDAT) in an inhibitor and allosteric ligand bound conformation” (PLoS ONE, 2018).
